In US20240067639A1, “SMALL MOLECULES THAT TARGET THE RNA THAT CAUSES ALS” (EXPANSION THERAPEUTICS, INC., priority 2020, published 2024):
Where two headings read alike, the source gives them in different places.

How the values were obtained:
[1] = tested on: RAN translation of (G4C2)66-No ATG-GFP in HEK293T cells; experiment: Cell-based assay of RAN translation inhibition (GFP/mCherry reporter); conditions: Homo sapiens, HEK-293T; for IC50: read-out: RANT IC50; for IC25: 24 h, read-out: RANT IC25
[2] = molecular target: Biotin-labeled RNA (target RNA); experiment: BLI affinity measurement (ForteBio Octet RED384); type: binding; conditions: Table G
[3] = molecular target: biotinylated r(G4C2)8 RNA and hnRNP H1-His6; experiment: TR-FRET hnRNP H binding assay
Summary of the method: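 Biotinylated r(G4C2)8 RNA (80 nM), heat-folded at 95 °C then slowly cooled, was preincubated 15 min with compound before hnRNP H1-His6 (75 nM) was added. After 15 min, streptavidin-XL665 (40 nM) and anti-His6-Tb (0.44 ng/μL) were added and TR-FRET was read after 1 h. IC50 was obtained by curve fitting.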

[4] = Table F, HEK293T, 24 h treatment
[5] = Table D, HEK293T, 24 h treatment

Row | Kd [2] [µM] | Ki ([3]; Table D) [µM] | Compound | IC25 [1, 5] [µM] | other results
1 | 5 | – | Cc1c2ccncc2cc2c3cc(C(=O)N[C@H](C)CO)ccc3n(C)c12 [Compound 289, (R)—N-(1-hydroxypropan-2-yl)-5,6-dimethyl-6H-pyrido[4,3-b]carbazole-9-carboxamide] | – | IC50 ([1]; Table G, HEK293T): 2.4 µM
2 | 0.09 | – | Cc1c2ccncc2cc2c3cc(OC[C@H](C)NC(C)C)ccc3n(C)c12 [Compound 283, (S)-1-((5,6-dimethyl-6H-pyrido[4,3-b]carbazol-9-yl)oxy)-N-isopropylpropan-2-amine] | – | IC50 ([1]; Table G, HEK293T): 2.4 µM
3 | 0.72 | – | Cc1c2ccncc2cc2c3cc(OC[C@H]4CCCN4)cc(F)c3n(C)c12 [Compound 265, (R)-7-fluoro-5,6-dimethyl-9-(pyrrolidin-2-ylmethoxy)-6H-pyrido[4,3-b]carbazole] | – | IC50 ([1]; Table G, HEK293T): > 100 µM
4 | 4.7 | – | Cc1c2ccnc(C(=O)NCCN(C)C)c2cc2c3cc(F)c(F)cc3n(C)c12 [Compound 313, N-(2-(dimethylamino)ethyl)-8,9-difluoro-5,6-dimethyl-6H-pyrido[4,3-b]carbazole-1-carboxamide] | – | IC50 ([1]; Table G, HEK293T): > 100 µM
5 | 0.69 | – | Cc1c2ccncc2cc2c3cc(OCCCN4CCCCC4)ccc3n(C)c12 [Compound 266, 5,6-dimethyl-9-(3-(piperidin-1-yl)propoxy)-6H-pyrido[4,3-b]carbazole] | – | IC50 ([1]; Table G, HEK293T): 7.8 µM
6 | 3 | – | Cc1c2ccncc2cc2c3cc(Oc4ccc(N)nc4)ccc3n(C)c12 [Compound 314, 5-((5,6-dimethyl-6H-pyrido[4,3-b]carbazol-9-yl)oxy)pyridine-2-amine] | – | IC50 ([1]; Table G, HEK293T): > 60 µM
7 | 1.4 | – | Cc1c2ccncc2cc2c3cc(OC[C@H](C)Nc4ccccn4)ccc3n(C)c12 [Compound 269, (S)—N-(1-((5,6-dimethyl-6H-pyrido[4,3-b]carbazol-9-yl)oxy)propan-2-yl)pyridin-2-amine] | – | IC50 ([1]; Table G, HEK293T): > 100 µM
8 | 0.041 | – | CN[C@@H](C)COc1ccc2c(c1)c1cc3cnccc3c(C)c1n2C [Compound 276, (S)-1-((5,6-dimethyl-6H-pyrido[4,3-b]carbazol-9-yl)oxy)-N-methylpropan-2-amine] | – | IC50 ([1]; Table G, HEK293T): 12 µM
9 | 5 | – | Cc1c2ccncc2cc2c3ccccc3n(CC3=NCCN3)c12 [Compound 317, 6-((4,5-dihydro-1H-imidazol-2-yl)methyl)-5-methyl-6H-pyrido[4,3-b]carbazole] | – | IC50 ([1]; Table G, HEK293T): 5 µM
10 | 2.6 | – | Cc1c2ccncc2cc2c3cc(C(=O)N[C@H](C)CN(C)C)ccc3n(C)c12 [Compound 286, N-[(1R)-2-(dimethylamino)-1-methyl-ethyl]-5,6-dimethyl-pyrido[4,3-b]carbazole-9-carboxamide] | – | IC50 ([1]; Table G, HEK293T): 10 µM
11 | 5.3 | – | Cc1c2ccncc2cc2c3cc(C(=O)NCC(N)=O)ccc3n(C)c12 [Compound 296, N-(2-amino-2-oxoethyl)-5,6-dimethyl-6H-pyrido[4,3-b]carbazole-9-carboxamide] | – | IC50 ([1]; Table G, HEK293T): 3 µM
12 | – | – | Cc1c2ccncc2cc2c3cc(OCCN4CCC(C)(C)CC4)ccc3n(C)c12 [Compound 223, 9-(2-(4,4-dimethylpiperidin-1-yl)ethoxy)-5,6-dimethyl-6H-pyrido[4,3-b]carbazole] | – | Ki ([3]; Table F): 3.1 µM; IC25 [1, 4]: 3.8 µM
13 | – | 39 | COc1ccc2c(c1)c1cc3c(C(=O)N[C@H](C)CN(C)C)nccc3c(C)c1n2C [Example 25, (R)—N-(1-(dimethylamino)propan-2-yl)-9-methoxy-5,6-dimethyl-6H-pyrido[4,3-b]carbazole-1-carboxamide] | 0.27 | –
14 | – | 6.1 | CNC(=O)COc1ccc2c(c1)c1cc3cnccc3c(C)c1n2C [Example 34, 2-((5,6-dimethyl-6H-pyrido[4,3-b]carbazol-9-yl)oxy)-N-methylacetamide] | 1.2 | –
15 | – | 8.1 | COc1ccc2c(c1)c1cc3c(C(=O)NCCN(C)C)nccc3c(C)c1n2C [Example 28, N-[2-(dimethylamino)ethyl]-9-methoxy-5,6-dimethyl-pyrido[4,3-b]carbazole-1-carboxamide] | 0.64 | –
16 | – | 9.1 | COc1ccc2c(c1)c1cc3c(C(=O)N[C@@H](C)CN(C)C)nccc3c(C)c1n2C [Example 27, (S)—N-(1-(dimethylamino)propan-2-yl)-9-methoxy-5,6-dimethyl-6H-pyrido[4,3-b]carbazole-1-carboxamide] | 1 | –
17 | – | – | Cn1c2ccc(OCC3=NCCN3)cc2c2cc3cnccc3cc21 [Compound 234, 9-((4,5-dihydro-1H-imidazol-2-yl)methoxy)-6-methyl-6H-pyrido[4,3-b]carbazole] | – | Ki ([3]; Table F): 0.8 µM; IC25 [1, 4]: 0.65 µM
18 | – | 17 | COc1ccc2c(c1)c1cc3c(C(=O)NCCCN(C)C)nccc3c(C)c1n2C [Example 29, N-(3-(dimethylamino)propyl)-9-methoxy-5,6-dimethyl-6H-pyrido[4,3-b]carbazole-1-carboxamide] | 0.74 | –

Row | Kd [2] [µM] | Ki ([3]; Table D) [µM] | Compound | IC25 [1, 5] [µM] | other results
19 | – | – | Cc1c2ccncc2cc2c3cc(OCCN4CCC(C)CC4)ccc3n(C)c12 [Compound 227, 5,6-dimethyl-9-(2-(4-methylpiperidin-1-yl)ethoxy)-6H-pyrido[4,3-b]carbazole] | – | Ki ([3]; Table F): 1.4 µM; IC25 [1]: > 5 µM
20 | – | 10 | Cc1c2ccncc2cc2c3cc(OCCCN4CCCC4)ccc3n(C)c12 [Compound 9, 5,6-dimethyl-9-(3-(pyrrolidin-1-yl)propoxy)-6H-pyrido[4,3-b]carbazole] | 0.27 | –
21 | – | – | Cc1c2ccncc2cc2c3cc(N4CCN(C)CC4)ccc3n(C)c12 [Compound 243, 5,6-dimethyl-9-(4-methylpiperazin-1-yl)-6H-pyrido[4,3-b]carbazole] | – | Ki ([3]; Table F): 0.6 µM; IC25 [1, 4]: 1.2 µM
22 | – | 29 | Cc1c2ccncc2cc2c3cc(C(=O)NCCC4CCN(C)CC4)ccc3n(C)c12 [Example 75, 5,6-dimethyl-N-(2-(1-methylpiperidin-4-yl)ethyl)-6H-pyrido[4,3-b]carbazole-9-carboxamide] | 1.4 | –
23 | – | – | Cc1c2ccnc(C(=O)N[C@H](C)CN(C)C)c2cc2c3ccc(OCCCN4CCN(C)CC4)cc3n(C)c12 [Compound 222, (R)—N-(1-(dimethylamino)propan-2-yl)-5,6-dimethyl-8-(3-(4-methylpiperazin-1-yl)-propoxy)-6H-pyrido[4,3-b]carbazole-1-carboxamide] | – | Ki ([3]; Table F): 6.1 µM; IC25 [1, 4]: > 5 µM
24 | – | 20 | Cc1c2ccncc2cc2c3cc(OCCN(C)C)ccc3n(C)c12 [Compound 5] | 0.5 | –
25 | – | 6 | Cc1c2ccncc2cc2c3ccc(OCCN(C)C)cc3n(C)c12 [Example 51, 2-((5,6-dimethyl-6H-pyrido[4,3-b]carbazol-8-yl)oxy)-N,N-dimethylethanamine] | > 5 | –
26 | – | – | Cc1c2ccncc2cc2c3cc(OCCN4CCCCCC4)ccc3n(C)c12 [Compound 219, 9-(2-(azepan-1-yl)ethoxy)-5,6-dimethyl-6H-pyrido[4,3-b]carbazole] | – | Ki ([3]; Table F): 1.2 µM; IC25 [1]: > 5 µM
27 | – | 0.76 | Cc1c2ccncc2cc2c3cc(OC[C@H]4CCCN4)ccc3n(C)c12 [Example 38, (R)-5,6-dimethyl-9-(pyrrolidin-2-ylmethoxy)-6H-pyrido[4,3-b]carbazole] | 0.74 | –
28 | – | 2.5 | Cc1c2ccncc2cc2c3cc(OCCN4CCN(C)CC4)ccc3n(C)c12 [Example 30, 5,6-dimethyl-9-(2-(4-methylpiperazin-1-yl)ethoxy)-6H-pyrido[4,3-b]carbazole] | 2.2 | –
29 | – | 0.6 | Cc1c2ccncc2cc2c3cc(OCC4=NCCN4C)ccc3n(C)c12 [Example 41, 5,6-dimethyl-9-((1-methyl-4,5-dihydro-1H-imidazol-2-yl)methoxy)-6H-pyrido[4,3-b]carbazole] | 0.67 | –
30 | – | 13 | CNCCNC(=O)c1ccc2c(c1)c1cc3cnccc3c(C)c1n2C [Example 73, 5,6-dimethyl-N-(2-(methylamino)ethyl)-6H-pyrido[4,3-b]carbazole-9-carboxamide] | 0.84 | –
31 | – | > 200 | COc1ccc2c(c1)c1cc3cnccc3c(C)c1n2C [Compound 1, 9-methoxy-5,6-dimethyl-6H-pyrido[4,3-b]carbazole] | > 5 | –
32 | – | 1.2 | Cc1c2ccncc2cc2c3cc(C(=O)NCCN4CCCCC4)ccc3n(C)c12 [Example 77, 5,6-dimethyl-N-(2-(piperidin-1-yl)ethyl)-6H-pyrido[4,3-b]carbazole-9-carboxamide] | 1.7 | –
33 | – | 11 | Cc1c2ccncc2cc2c3cc(OCCCN4CCOCC4)ccc3n(C)c12 [Compound 8, 4-(3-((5,6-dimethyl-6H-pyrido[4,3-b]carbazol-9-yl)oxy)propyl)morpholine] | 0.36 | –
34 | – | – | Cn1c2ccc(OCC(=N)N)cc2c2cc3cnccc3cc21 [Compound 245, 2-((6-methyl-6H-pyrido[4,3-b]carbazol-9-yl)oxy)acetimidamide] | – | Ki ([3]; Table F): 0.8 µM; IC25 [1, 4]: 1.7 µM
35 | – | – | Cc1c2ccncc2cc2c3cc(C(=O)NCCN4CCCCC4)ccc3n(C)c12 [Compound 213, 5,6-dimethyl-N-(2-(piperidin-1-yl)ethyl)-6H-pyrido[4,3-b]carbazole-9-carboxamide] | – | Ki ([3]; Table F): 1.2 µM; IC25 [1, 4]: 1.7 µM

Row | Compound | Kd [2] [µM] | Ki ([3]; Table D) [µM] | IC25 [1, 5] [µM] | other results
36 | COc1ccc2c(c1)c1cc3cnccc3c(C)c1n2CCN1CCCCC1 [Compound 316, 9-methoxy-5-methyl-6-(2-(piperidin-1-yl)ethyl)-6H-pyrido[4,3-b]carbazole] | 3.4 | – | – | IC50 [1]: 10 µM
37 | Cc1c2ccncc2cc2c3c(OCCN(C)C)cccc3n(C)c12 [Example 55, 2-((5,6-dimethyl-6H-pyrido[4,3-b]carbazol-10-yl)oxy)-N,N-dimethylethanamine] | – | 1.5 | – | IC25 [1]: 0.92 µM
